Tests used:
Format in all cases: cell-based
E. coli DH5α = experiment: Antibacterial activity: MIC and growth curve against E. coli DH5α in 96-well plate; conditions: minimal inhibitory concentration against E. coli DH5α; 96-well plate, 5×10^5 CFU/mL, 37° C., judged after 8 h
Method in brief: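 MIC taken as lowest protein level with no bacterial growth, tracked by A600 every 30 min during 37 °C, 175 rpm culture. Two-fold protein series 50-12.5 μg/mL final, triplicate wells, against 5×10^5 CFU/mL of LB-washed mid-log cells.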

E. coli BL21 = experiment: MIC against Gram-negative bacteria: E. coli BL21
Method in brief: (§1)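 Purified recombinant human EGF domain proteins are tested by broth dilution in LB against a 5×10^5 CFU/mL inoculum, with two-fold serial dilutions run in triplicate. Plates are incubated at 37° C with shaking, and the MIC is read as the lowest protein concentration without growth.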

Pseudomonas aeruginosa = experiment: MIC against Gram-negative bacteria: Pseudomonas aeruginosa; conditions: for MIC against P. aeruginosa: Pseudomonas aeruginosa
Method in brief: as §1

Klebsiella pneumonia = experiment: MIC against Gram-negative bacteria: Klebsiella pneumonia; conditions: for MIC against K. pneumonia: Klebsiella pneumonia
Method in brief: as §1

Enterobacter cloacae = experiment: MIC against Gram-negative bacteria: Enterobacter cloacae; conditions: for MIC against E. cloacae: Enterobacter cloacae
Method in brief: as §1

Aeromonas hydrophila = experiment: MIC against Gram-negative bacteria: Aeromonas hydrophila; conditions: for MIC against A. hydrophila: Aeromonas hydrophila
Method in brief: as §1

Citrobacter diversus = experiment: MIC against Gram-negative bacteria: Citrobacter diversus; conditions: for MIC against C. diversus: Citrobacter diversus
Method in brief: as §1

Moraxella catarrhalis = experiment: MIC against Gram-negative bacteria: Moraxella catarrhalis; conditions: for MIC against M. catarrhalis: Moraxella catarrhalis
Method in brief: as §1

Proteus mirabilis = experiment: MIC against Gram-negative bacteria: Proteus mirabilis; conditions: for MIC against P. mirabilis: Proteus mirabilis
Method in brief: as §1

Proteus vulgaris = experiment: MIC against Gram-negative bacteria: Proteus vulgaris; conditions: for MIC against P. vulgaris: Proteus vulgaris
Method in brief: as §1

Serratia marcescens = experiment: MIC against Gram-negative bacteria: Serratia marcescens; conditions: for MIC against S. marcescens: Serratia marcescens
Method in brief: as §1

[1] = 96-well plate, 5×10^5 CFU/mL, 37° C., 10 h
[2] = E. coli BL21, 10 h cultivation at 37° C.
[3] = P. aeruginosa, 10 h cultivation at 37° C.
[4] = K. pneumonia, 10 h cultivation at 37° C.
[5] = E. cloacae, 10 h cultivation at 37° C.
[6] = A. hydrophila, 10 h cultivation at 37° C.
[7] = C. diversus, 10 h cultivation at 37° C.
[8] = M. catarrhalis, 10 h cultivation at 37° C.
[9] = P. mirabilis, 10 h cultivation at 37° C.
[10] = P. vulgaris, 10 h cultivation at 37° C.
[11] = S. marcescens, 10 h cultivation at 37° C.
[12] = 5×10^5 CFU/mL, 10 h cultivation at 37° C.
[13] = 10 h cultivation at 37° C., 5×10^5 CFU/mL, two-fold serial dilution

PRT1323 (DCIECPGGAGSPCNGRGSCAEGMEGNGTCSCQEGFGGTACE; listed as Homo sapiens)
MIC (E. coli DH5α): 12.5 µg/mL
MIC against E. coli BL21 (E. coli BL21; E. coli BL21, 96-well plate, 5×10^5 CFU/mL, 37° C., 10 h): 25 µg/mL
MIC against P. aeruginosa (Pseudomonas aeruginosa; [1]): 12.5 µg/mL
MIC against K. pneumonia (Klebsiella pneumonia; [1]): 25 µg/mL
MIC against E. cloacae (Enterobacter cloacae; [1]): 12.5 µg/mL
MIC against A. hydrophila (Aeromonas hydrophila; [1]): 12.5 µg/mL
MIC against C. diversus (Citrobacter diversus; [1]): 50 µg/mL
MIC against M. catarrhalis (Moraxella catarrhalis; [1]): 12.5 µg/mL
MIC against P. mirabilis (Proteus mirabilis; [1]): 25 µg/mL
MIC against P. vulgaris (Proteus vulgaris; [1]): 50 µg/mL
MIC against S. marcescens (Serratia marcescens; [1]): 12.5 µg/mL

PRT922 (LQCRDGYEPCVNEGMCVTYHNGTGYCKCPEGFLGEYCQ; listed as Homo sapiens)
MIC (E. coli DH5α): 12.5 µg/mL
MIC (E. coli BL21; [2]): 25 µg/mL
MIC (Pseudomonas aeruginosa; [3]): 12.5 µg/mL
MIC (Klebsiella pneumonia; [4]): 12.5 µg/mL
MIC (Enterobacter cloacae; [5]): 25 µg/mL
MIC (Aeromonas hydrophila; [6]): 25 µg/mL
MIC (Citrobacter diversus; [7]): 25 µg/mL
MIC (Moraxella catarrhalis; [8]): 25 µg/mL
MIC (Proteus mirabilis; [9]): 50 µg/mL
MIC (Proteus vulgaris; [10]): 25 µg/mL
MIC (Serratia marcescens; [11]): 12.5 µg/mL

PRT1483 (DIDECVTSSCEGHCVNTEGGFVCECGPGMQLSADRHSCQ; listed as Homo sapiens)
MIC (E. coli DH5α): 12.5 µg/mL
MIC against E. coli BL21 (E. coli BL21; E. coli BL21, 5×10^5 CFU/mL, 10 h cultivation at 37° C.): 25 µg/mL
MIC against P. aeruginosa (Pseudomonas aeruginosa; [12]): 50 µg/mL
MIC against K. pneumonia (Klebsiella pneumonia; [12]): 25 µg/mL
MIC against E. cloacae (Enterobacter cloacae; [12]): 12.5 µg/mL
MIC against A. hydrophila (Aeromonas hydrophila; [12]): 25 µg/mL
MIC against C. diversus (Citrobacter diversus; [12]): 50 µg/mL
MIC against M. catarrhalis (Moraxella catarrhalis; [12]): 25 µg/mL
MIC against P. mirabilis (Proteus mirabilis; [12]): 12.5 µg/mL
MIC against P. vulgaris (Proteus vulgaris; [12]): 25 µg/mL
MIC against S. marcescens (Serratia marcescens; [12]): 25 µg/mL

PRT1137 (ESNECKMNPCKNNSTCTDLYKSYRCECTSGWTGQNCS; listed as Homo sapiens)
MIC (E. coli DH5α): 25 µg/mL
MIC E. coli BL21 (E. coli BL21; [13]): 50 µg/mL
MIC P. aeruginosa (Pseudomonas aeruginosa; [13]): 25 µg/mL
MIC K. pneumonia (Klebsiella pneumonia; [13]): 12.5 µg/mL
MIC E. cloacae (Enterobacter cloacae; [13]): 25 µg/mL
MIC A. hydrophila (Aeromonas hydrophila; [13]): 50 µg/mL
MIC C. diversus (Citrobacter diversus; [13]): 12.5 µg/mL
MIC M. catarrhalis (Moraxella catarrhalis; [13]): 50 µg/mL
MIC P. mirabilis (Proteus mirabilis; [13]): 12.5 µg/mL
MIC P. vulgaris (Proteus vulgaris; [13]): 50 µg/mL
MIC S. marcescens (Serratia marcescens; [13]): 12.5 µg/mL

PRT910 (EIDECLSHPCQNGGTCLDLPNTYKCSCPRGTQGVHCE; listed as Homo sapiens)
MIC (E. coli DH5α): 50 µg/mL
MIC (E. coli BL21; [2]): 25 µg/mL
MIC (Pseudomonas aeruginosa; [3]): 12.5 µg/mL
MIC (Klebsiella pneumonia; [4]): 25 µg/mL
MIC (Enterobacter cloacae; [5]): 50 µg/mL
MIC (Aeromonas hydrophila; [6]): 12.5 µg/mL
MIC (Citrobacter diversus; [7]): 25 µg/mL
MIC (Moraxella catarrhalis; [8]): 12.5 µg/mL
MIC (Proteus mirabilis; [9]): 25 µg/mL
MIC (Proteus vulgaris; [10]): 25 µg/mL
MIC (Serratia marcescens; [11]): 25 µg/mL

PRT254 (PCLEGGTCILSPKGASCNCPHPYTGDRCE; listed as Homo sapiens)
MIC (E. coli DH5α): 25 µg/mL
MIC (μg/mL) E. coli BL21 (E. coli BL21; E. coli BL21, 10 h cultivation at 37° C., 5×10^5 CFU/mL): 12.5 µg/mL
MIC (μg/mL) P. aeruginosa (Pseudomonas aeruginosa; P. aeruginosa, 10 h cultivation at 37° C., 5×10^5 CFU/mL): 12.5 µg/mL
MIC (μg/mL) K. pneumonia (Klebsiella pneumonia; K. pneumonia, 10 h cultivation at 37° C., 5×10^5 CFU/mL): 12.5 µg/mL
MIC (μg/mL) E. cloacae (Enterobacter cloacae; E. cloacae, 10 h cultivation at 37° C., 5×10^5 CFU/mL): 12.5 µg/mL
MIC (μg/mL) A. hydrophila (Aeromonas hydrophila; A. hydrophila, 10 h cultivation at 37° C., 5×10^5 CFU/mL): 25 µg/mL
MIC (μg/mL) C. diversus (Citrobacter diversus; C. diversus, 10 h cultivation at 37° C., 5×10^5 CFU/mL): 12.5 µg/mL
MIC (μg/mL) M. catarrhalis (Moraxella catarrhalis; M. catarrhalis, 10 h cultivation at 37° C., 5×10^5 CFU/mL): 25 µg/mL
MIC (μg/mL) P. mirabilis (Proteus mirabilis; P. mirabilis, 10 h cultivation at 37° C., 5×10^5 CFU/mL): 12.5 µg/mL
MIC (μg/mL) P. vulgaris (Proteus vulgaris; P. vulgaris, 10 h cultivation at 37° C., 5×10^5 CFU/mL): 12.5 µg/mL
MIC (μg/mL) S. marcescens (Serratia marcescens; S. marcescens, 10 h cultivation at 37° C., 5×10^5 CFU/mL): 12.5 µg/mL

Source: patent publication US9833497B2, “Human originated EGF domain proteins and use of the same” (CHENGDU SOURCEBIO LIMITED-LIABILITY COMPANY, priority 2013, dated 2017)
